Converted amounts (≈) assume the structure as drawn.
Key:
[1] = target: T1, L-lactate dehydrogenase A chain (Homo sapiens, UniProt P00338); assay: Inhibition of human recombinant carboxy-terminal His-tagged LDHA by SPR assay
[2] = target: T1, L-lactate dehydrogenase A chain; assay: Inhibition of human recombinant carboxy-terminal His-tagged LDHA by UV endpoint assay
[3] = Dissociation constant, pKa of the compound; type: physicochemical
[4] = target: T1, L-lactate dehydrogenase A chain; assay: Inhibition of human recombinant carboxy-terminal His-tagged LDHA by MS endpoint assay
[5] = target: T1, L-lactate dehydrogenase A chain; assay: Inhibition of human recombinant carboxy-terminal His-tagged LDHA by SPR assay in presence of +NADH
[6] = Aqueous solubility of the compound in PBS buffer at pH 7.2; type: physicochemical
[7] = Clearance in human liver microsomes at 1 uM up to 60 mins by LC-MS/MS analysis; type: ADME
[8] = Fraction unbound in human plasma by LC-MS/MS analysis; type: ADME, cell-free
Cytochrome P450 2D6 = Cytochrome P450 2D6 (Homo sapiens, UniProt P10635); assay: Inhibition of CYP2D6 (unknown origin); type: ADME
Cytochrome P450 2D6, sequence (P10635 whole entry): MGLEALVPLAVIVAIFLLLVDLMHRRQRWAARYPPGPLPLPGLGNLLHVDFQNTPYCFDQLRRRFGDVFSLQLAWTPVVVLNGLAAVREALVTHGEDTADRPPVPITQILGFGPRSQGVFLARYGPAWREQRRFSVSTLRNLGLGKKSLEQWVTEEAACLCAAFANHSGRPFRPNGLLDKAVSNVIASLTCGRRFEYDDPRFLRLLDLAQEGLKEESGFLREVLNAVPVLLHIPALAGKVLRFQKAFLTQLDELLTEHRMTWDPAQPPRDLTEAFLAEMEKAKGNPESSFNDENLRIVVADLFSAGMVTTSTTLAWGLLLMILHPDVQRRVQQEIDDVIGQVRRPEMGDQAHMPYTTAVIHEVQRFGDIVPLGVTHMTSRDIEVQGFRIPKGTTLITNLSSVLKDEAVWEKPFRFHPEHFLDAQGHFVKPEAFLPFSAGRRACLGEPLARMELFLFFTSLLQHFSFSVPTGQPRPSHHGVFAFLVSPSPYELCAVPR

[9] = Clearance in Sprague-Dawley rat liver microsomes at 1 uM up to 60 mins by LC-MS/MS analysis; type: ADME
[10] = Apparent permeability from apical to basolateral side in MDCK cells at 2 uM by LC-MS/MS analysis; type: ADME, cell-based, Canis lupus familiaris; conditions: dog
Cytochrome P450 3A4 = Cytochrome P450 3A4 (Homo sapiens, UniProt P08684); assay: Inhibition of CYP3A4 (unknown origin); type: ADME
Cytochrome P450 3A4, sequence (P08684 whole entry): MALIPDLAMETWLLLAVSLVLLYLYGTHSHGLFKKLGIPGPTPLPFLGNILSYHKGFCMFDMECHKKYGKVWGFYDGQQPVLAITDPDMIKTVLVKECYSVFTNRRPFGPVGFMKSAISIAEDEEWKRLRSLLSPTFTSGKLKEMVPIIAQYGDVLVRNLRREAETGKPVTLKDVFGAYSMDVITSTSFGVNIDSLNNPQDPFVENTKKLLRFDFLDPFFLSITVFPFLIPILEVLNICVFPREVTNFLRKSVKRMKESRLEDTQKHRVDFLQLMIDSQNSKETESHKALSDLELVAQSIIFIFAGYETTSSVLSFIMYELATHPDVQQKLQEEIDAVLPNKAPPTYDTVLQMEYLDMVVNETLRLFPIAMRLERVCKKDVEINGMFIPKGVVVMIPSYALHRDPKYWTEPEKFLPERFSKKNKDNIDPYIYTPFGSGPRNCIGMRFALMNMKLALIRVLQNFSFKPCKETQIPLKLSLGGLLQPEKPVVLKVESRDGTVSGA

Cytochrome P450 2C9 = Cytochrome P450 2C9 (Homo sapiens, UniProt P11712); assay: Inhibition of CYP2C9 (unknown origin); type: ADME
Cytochrome P450 2C9, sequence (P11712 whole entry): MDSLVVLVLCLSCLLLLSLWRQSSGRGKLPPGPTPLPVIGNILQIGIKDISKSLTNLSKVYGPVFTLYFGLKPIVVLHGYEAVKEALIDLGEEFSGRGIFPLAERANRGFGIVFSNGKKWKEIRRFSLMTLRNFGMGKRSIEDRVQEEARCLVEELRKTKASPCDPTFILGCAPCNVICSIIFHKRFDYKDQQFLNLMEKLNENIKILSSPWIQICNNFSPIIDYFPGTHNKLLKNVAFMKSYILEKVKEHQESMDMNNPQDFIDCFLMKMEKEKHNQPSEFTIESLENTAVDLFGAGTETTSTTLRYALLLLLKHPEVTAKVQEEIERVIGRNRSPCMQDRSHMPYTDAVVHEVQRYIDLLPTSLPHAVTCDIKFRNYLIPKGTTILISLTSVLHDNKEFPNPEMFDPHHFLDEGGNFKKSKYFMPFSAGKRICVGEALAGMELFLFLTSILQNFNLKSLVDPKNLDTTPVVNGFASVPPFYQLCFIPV

Cytochrome P450 1A2 = target: T2, Cytochrome P450 1A2 (Homo sapiens, UniProt P05177); assay: Inhibition of CYP1A2 (unknown origin); type: ADME
T2 sequence (P05177 whole entry): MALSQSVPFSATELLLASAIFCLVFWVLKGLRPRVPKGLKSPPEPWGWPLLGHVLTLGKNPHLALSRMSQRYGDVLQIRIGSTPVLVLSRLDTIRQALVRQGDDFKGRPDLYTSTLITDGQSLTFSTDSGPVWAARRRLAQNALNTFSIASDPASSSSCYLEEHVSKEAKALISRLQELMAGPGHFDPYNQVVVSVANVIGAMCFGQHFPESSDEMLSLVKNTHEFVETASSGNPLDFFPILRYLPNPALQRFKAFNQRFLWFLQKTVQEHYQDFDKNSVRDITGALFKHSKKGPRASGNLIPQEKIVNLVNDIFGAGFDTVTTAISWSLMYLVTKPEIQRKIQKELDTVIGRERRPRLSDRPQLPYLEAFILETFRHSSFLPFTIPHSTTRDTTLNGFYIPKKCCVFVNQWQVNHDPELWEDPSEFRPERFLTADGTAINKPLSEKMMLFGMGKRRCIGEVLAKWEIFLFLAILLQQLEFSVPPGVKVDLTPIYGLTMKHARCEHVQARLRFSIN

[11] = Fraction unbound in rat plasma by LC-MS/MS analysis; type: ADME, cell-free
[12] = target: T3, Malate dehydrogenase, mitochondrial (Homo sapiens, UniProt P40926); assay: Inhibition of human recombinant carboxy-terminal His-tagged MDH-2
T3 sequence (P40926 whole entry): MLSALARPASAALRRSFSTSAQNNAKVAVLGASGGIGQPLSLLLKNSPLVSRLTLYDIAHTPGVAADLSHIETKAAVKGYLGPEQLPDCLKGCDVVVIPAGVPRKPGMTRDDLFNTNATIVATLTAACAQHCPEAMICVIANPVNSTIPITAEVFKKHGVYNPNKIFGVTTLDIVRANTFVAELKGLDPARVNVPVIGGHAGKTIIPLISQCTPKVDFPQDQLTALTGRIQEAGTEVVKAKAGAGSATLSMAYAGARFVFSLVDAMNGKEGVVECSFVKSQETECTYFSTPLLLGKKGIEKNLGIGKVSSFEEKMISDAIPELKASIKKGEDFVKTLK

[13] = AUC (0 to 24 hrs) in Sprague-Dawley rat at 2 mg/kg, po; type: ADME, organism-based; set-up: time < 24 hr, dose 2 mg/kg, route oral; conditions: plasma
[14] = Oral bioavailability in Sprague-Dawley rat plasma at 2 mg/kg; type: ADME, organism-based
[15] = Clearance in Sprague-Dawley rat plasma at 0.5 mg/kg, iv by LC-MS/MS analysis; type: ADME, organism-based; set-up: dose 0.5 mg/kg, route intravenous
[16] = target: T4, Malate dehydrogenase, cytoplasmic (Homo sapiens, UniProt P40925); assay: Inhibition of human recombinant carboxy-terminal His-tagged MDH-1
T4 sequence (P40925 whole entry): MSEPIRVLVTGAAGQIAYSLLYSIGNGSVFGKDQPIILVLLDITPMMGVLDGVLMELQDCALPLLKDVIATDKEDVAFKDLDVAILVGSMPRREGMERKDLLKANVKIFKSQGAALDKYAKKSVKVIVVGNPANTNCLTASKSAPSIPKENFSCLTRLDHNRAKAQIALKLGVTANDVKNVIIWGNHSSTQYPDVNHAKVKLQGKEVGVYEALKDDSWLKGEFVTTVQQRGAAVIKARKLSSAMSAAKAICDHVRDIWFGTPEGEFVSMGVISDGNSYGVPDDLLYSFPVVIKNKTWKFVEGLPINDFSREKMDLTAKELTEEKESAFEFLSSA

[17] = AUC (0 to 24 hrs) in Sprague-Dawley rat at 0.5 mg/kg, iv; type: ADME, organism-based; set-up: time < 24 hr, dose 0.5 mg/kg, route intravenous; conditions: plasma
[18] = Half life in Sprague-Dawley rat plasma at 0.5 mg/kg, iv; type: ADME, organism-based; set-up: dose 0.5 mg/kg, route intravenous
[19] = Half life in Sprague-Dawley rat plasma at 2 mg/kg, po; type: ADME, organism-based; set-up: dose 2 mg/kg, route oral
[20] = Volume of distribution at steady state in Sprague-Dawley rat at 0.5 mg/kg, iv; type: ADME, organism-based; set-up: dose 0.5 mg/kg, route intravenous; conditions: in vivo, read-out: Vdss
[21] = target: L-lactate dehydrogenase B chain (Homo sapiens, UniProt P07195)
L-lactate dehydrogenase B chain, sequence (P07195 whole entry): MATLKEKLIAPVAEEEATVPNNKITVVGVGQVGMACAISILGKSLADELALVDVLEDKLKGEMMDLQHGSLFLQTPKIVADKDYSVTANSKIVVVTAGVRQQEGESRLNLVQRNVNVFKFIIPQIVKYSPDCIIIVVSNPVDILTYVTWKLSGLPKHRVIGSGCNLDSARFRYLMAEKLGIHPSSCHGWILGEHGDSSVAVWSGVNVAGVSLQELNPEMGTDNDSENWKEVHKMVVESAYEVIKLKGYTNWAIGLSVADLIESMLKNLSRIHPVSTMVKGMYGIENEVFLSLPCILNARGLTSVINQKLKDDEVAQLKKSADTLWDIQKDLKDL
Description: Inhibition of human recombinant carboxy-terminal His-tagged LDHB by UV endpoint assay

Row | Kd [1] | IC50 [2] | solubility [6] | CLhep predicted at 1 µM [7] | fraction unbound [8] | IC50 (Cytochrome P450 2D6) | CLhep predicted at 1 µM [9] | Papp A→B at 2 µM [10] | IC50 (Cytochrome P450 3A4) | IC50 (Cytochrome P450 2C9) | IC50 (Cytochrome P450 1A2) | fraction unbound [11] | IC50 [21] | Structure (SMILES) | further results
1 | 771 µM | 1.7 µM |  |  |  |  |  |  |  |  |  |  |  | O=C1CC(c2ccccc2)CC(O)=C1Sc1ccccc1[N+](=O)[O-] (stereo unspecified) | pKa [3]: 2.63; IC50 [4]: 0.88 µM; Kd [5]: 3.5 µM
2 | 4.3 µM | 4.6 µM | 147 µM (≈ 48.6 µg/mL) | 3.9 mL/min/kg | 0.001 | > 5 µM | 14 mL/min/kg | 18 ×10⁻⁶ cm/s | > 5 µM | > 5 µM | > 5 µM | 0.002 |  | O=C1CC(c2ccccc2)CC(O)=C1Sc1ccccc1Cl (stereo unspecified) | 
3 | 1.5 µM | 1.6 µM | 118 µM (≈ 37.9 µg/mL) | 1.6 mL/min/kg | 0.001 | > 5 µM | 5.2 mL/min/kg | 4.1 ×10⁻⁶ cm/s | > 5 µM | > 5 µM | > 5 µM | 0.01 |  | N#Cc1ccccc1SC1=C(O)CC(c2ccccc2)CC1=O (stereo unspecified) | 
4 | 1.8 µM | 0.87 µM | 128 µM (≈ 51.2 µg/mL) | 14 mL/min/kg | 0.005 | > 5 µM | 27 mL/min/kg | 17 ×10⁻⁶ cm/s | > 5 µM | > 5 µM | > 5 µM | 0.002 |  | O=C1CC(c2c(Cl)cccc2Cl)CC(O)=C1Sc1ccccc1Cl (stereo unspecified) | IC50 [12]: > 100 µM; AUC(0-t) at 24 h [13]: 142 µM·h; bioavailability [14]: 45%; clearance [15]: 0.35 mL/min/kg; IC50 [16]: > 100 µM; AUC(0-t) at 24 h [17]: 60.3 µM·h; half-life [18]: 13.2 h; half-life [19]: 10.7 h; Vd [20]: 0.39 L
5 | 0.5 µM | 1 µM | 117 µM (≈ 50.7 µg/mL) | 17 mL/min/kg |  | > 5 µM | 37 mL/min/kg |  | > 5 µM | > 5 µM | > 5 µM |  |  | O=C1CC(c2c(Cl)cccc2C(F)(F)F)CC(O)=C1Sc1ccccc1Cl (stereo unspecified) | 
6 |  | 15 µM | 143 µM (≈ 66.8 µg/mL) | 18 mL/min/kg |  | > 5 µM | 38 mL/min/kg |  | > 5 µM | > 5 µM | > 5 µM |  | 7.4 µM | O=C1CC(c2c(C(F)(F)F)cccc2C(F)(F)F)CC(O)=C1Sc1ccccc1Cl (stereo unspecified) | 
7 | 0.43 µM | 0.83 µM | 117 µM (≈ 45.7 µg/mL) | 12 mL/min/kg |  | > 5 µM | 24 mL/min/kg |  | > 5 µM | > 5 µM | > 5 µM |  | 4.9 µM | N#Cc1ccccc1SC1=C(O)CC(c2c(Cl)cccc2Cl)CC1=O (stereo unspecified) | 
8 | 0.24 µM | 0.45 µM | 75 µM (≈ 32.6 µg/mL) | 15 mL/min/kg | 0.002 | > 5 µM | 31 mL/min/kg | 14 ×10⁻⁶ cm/s | > 5 µM | > 5 µM | > 5 µM | 0.005 | 2 µM | N#Cc1ccccc1SC1=C(O)CC(c2c(Cl)cccc2Br)CC1=O (stereo unspecified) | 

— ChEMBL document CHEMBL3352775, “Identification of substituted 3-hydroxy-2-mercaptocyclohex-2-enones as potent inhibitors of human lactate dehydrogenase” (Bioorg Med Chem Lett, 2014)
